Measured values: PubChem BioAssay (NCI)
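Exposure lasted 48 hours, with cells grown in 96-well plates and compounds tested at five concentrations. TGI denotes the concentration required for complete inhibition of growth.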

Legend:
Assay in all cases: NCI-60 cell line screen, 48 h
HT29 colon = system: HT29 colon
MALME-3M melanoma = system: MALME-3M melanoma
MDA-MB-435 = system: MDA-MB-435
MDA-N = system: MDA-N
MOLT-4 leukemia = system: MOLT-4 leukemia
NCI-H23 lung = system: NCI-H23 lung
NCI-H460 lung = system: NCI-H460 lung
OVCAR-3 ovarian = system: OVCAR-3 ovarian
OVCAR-4 ovarian = system: OVCAR-4 ovarian
OVCAR-8 ovarian = system: OVCAR-8 ovarian
PC-3 prostate = system: PC-3 prostate
SF-268 CNS = system: SF-268 CNS
SF-295 CNS = system: SF-295 CNS
SK-MEL-5 melanoma = system: SK-MEL-5 melanoma
SN12C renal = system: SN12C renal
SNB-19 CNS = system: SNB-19 CNS
SW-620 colon = system: SW-620 colon
T-47D breast = system: T-47D breast
UO-31 renal = system: UO-31 renal

SMILES	TGI (HT29 colon) [µM]	TGI (MALME-3M melanoma) [µM]	TGI (MDA-MB-435) [µM]	TGI (MDA-N) [µM]	TGI (MOLT-4 leukemia) [µM]	TGI (NCI-H23 lung) [µM]	TGI (NCI-H460 lung) [µM]	TGI (OVCAR-3 ovarian) [µM]	TGI (OVCAR-4 ovarian) [µM]	TGI (OVCAR-8 ovarian) [µM]	TGI (PC-3 prostate) [µM]	TGI (SF-268 CNS) [µM]	TGI (SF-295 CNS) [µM]	TGI (SK-MEL-5 melanoma) [µM]	TGI (SN12C renal) [µM]	TGI (SNB-19 CNS) [µM]	TGI (SW-620 colon) [µM]	TGI (T-47D breast) [µM]	TGI (UO-31 renal) [µM]
COc1ccccc1NC(=S)Nc1cc(C)cc(C)n1	> 100	> 100	> 100	> 100	> 100	> 100	> 100	> 100	> 100	> 100	> 100	> 100	> 100	> 100	> 100	> 100	> 100	> 100	> 100
Cc1ccc(S(=O)(=O)c2ccsc2NC(=O)C(F)(F)F)cc1	> 100	> 100	> 100	98.9	45.9	> 100	> 100	> 100	> 100	> 100	> 100	> 100	> 100	44.4	66.8	> 100	> 100	> 100	96.1
Cc1c(C)c(C)n(C2OC(CO)C(O)C(O)C2O)c(=S)c1C#N (centres undefined)	> 100	> 100	> 100	> 100	> 100	> 100	> 100	> 100	> 100	> 100	> 100	> 100	> 100	> 100	> 100	> 100	> 100	> 100	> 100
O=c1[nH]nc(-c2ccccc2)n1/N=C/c1ccc([N+](=O)[O-])cc1	> 100	> 100	> 100	> 100	> 100	> 100	> 100	> 100	> 100	37.1	> 100	> 87.2	> 77.7	> 100	> 100	> 100	> 100	> 60.2	> 38.1
O=C1CN(C(=O)C2CCCN2C(=O)C2CCCN2)C(=O)CN1 (centres undefined)	> 100	> 100	> 100	> 100	> 100	> 100	> 100	> 100	> 100	> 100	> 100	> 100	> 100	> 100	> 100	> 100	> 100	> 100	> 100
COc1ccccc1N(CN1C(=O)CCC1C(=O)O)C(C)=O (centres undefined)	> 100	> 100	> 100	> 100	> 100	> 100	> 100	> 100	> 100	> 100	> 100	> 100	> 100	> 100	> 100	> 100	> 100	> 100	> 100
CCOC(=O)c1cc2c([nH]1)c(O)cc1c2ccn1Cc1ccccc1	30.2	36.8	31	29.5	14.1	28.1	34.7	31.6	35.4	33.4	34.2	51.3	31.6	24.5	36.6	28.2	40.6	11.9	29.3
CCCCCCCCCCCCN(CC(O)C(O)C(OC1OC(CO)C(O)C(O)C1O)C(O)CO)C(=O)CCCCCCCCCCC (centres undefined)	34.4	36	30.8	38.2	50.1	46.2	39.7	49.2	44.5	46.7	52.9	43.6	37.3	31.3	45.4	35.4	33.6	62.3	45.8
CC1(C)C2CCC(CN)(C2)C1N (centres undefined)	> 100	> 100	> 100	> 100	> 100	> 100	> 100	> 100	> 100	> 100	> 100	> 100	> 100	> 100	> 100	> 100	> 100	> 100	> 100
OC1(c2ccc(Cl)cc2)C(N2CCCC2)c2ccccc2C2=NCCN21 (centres undefined)	32.4	36.9	86.7	51.4	93.8	92.7	> 100	> 100	87.9	58.8	> 100	> 100	30.9	28.4	> 100	> 100	> 100	41	> 100
CCOC(=O)C1(Cc2ccccc2)C=CN(C(=O)c2ccccc2)C=C1	> 100	88.9	90.5	65.2	73.6	> 100	> 100	> 100	> 100	> 100	> 100	> 100	> 100	29.8	> 100	> 100	> 100	78.8	> 100
